Data published in patent publication US8357413B2, “Process for the disinfection and/or preservation of harvested plant material” (Solvay (Societe Anonyme), priority 2003, dated 2013).

Tested on: aerobic micro-organism activity
Assay: Example 4: aerobic stability of forage (temperature rise in insulated boxes)
Protocol: The treatments shown in examples 1 and 2 were also evaluated for their aerobic stability i.e. under conditions representing opening of the clamp to use the forage as feed thus allowing air to enter the clamp. In this case comparisons were made with untreated forage as in examples 1 and 2 and also with forage treated with a typical acid product, formic acid (85% w/w) applied at 2.5 liters per tonne of grass. 750 g of the forages were stored in insulated boxes placed in a controlled environment at 20-22° C. A temperature probe was inserted into each box linked to a data logger to monitor temperature changes hourly over a 6 day period.

O=CO [Formic Acid, formic acid]
Temperature Day 0 (750 g forage in insulated boxes at 20-22° C., Day 0): 17.8 °C
Temperature Day 6 (750 g forage in insulated boxes at 20-22° C., Day 6): 20.5 °C
Temperature increase (Day 0 to Day 6): +2.7 °C
